For seven compounds, degraded, Drug metabolism and Stability results are on record in ChEMBL document CHEMBL4219093, “New 4-aryl-1,3,2-oxathiazolylium-5-olates: Chemical synthesis and photochemical stability of a novel series of S-nitrosothiols” (Bioorg Med Chem Lett, 2018).

Type in all cases: physicochemical
Series [1] can be described thus: Drug metabolism assessed as ring opening in EtOH/H2O at 75 mM measured after 40 mins under dark condition by UV-vis spectrophotometric method. The settings on record: for degraded at 40 min: EtOH/H2O, read-out: Drug metabolism; for Drug metabolism: 40 min, 75000 µM.
Series [2] in a line: Photochemical stability of the compound in EtOH/H2O assessed as ring opening by measuring compound decomposition at 75 mM measured in presence of ambient daylight conditions after 40 mins by UV-vis spectrophotometric method. Conditions: for degraded at 40 min: EtOH/H2O, read-out: Drug degradation.
Series [3] can be described thus: Photochemical stability of the compound assessed as compound decomposition in phosphate buffer at pH 7.4 exposed to daylight at 0.4 mM measured over 3 hrs by UV-Vis absorbance method. Conditions: read-out: Drug degradation.

`[O-]c1on[s+]c1-c1cccc(Cl)c1`: in series [1], the degraded at 40 min fell in the range of 40 to 80%.
As to `[O-]c1on[s+]c1-c1ccc(F)cc1`, the degraded at 40 min was 40 to 80% in series [1] and 76% in series [2].
`[O-]c1on[s+]c1-c1ccccc1Cl`: the Drug metabolism result in series [1] is “Metabolite_Detected”.
Turning to `[O-]c1on[s+]c1-c1ccc(Cl)cc1`, the Drug metabolism entry in series [1] is recorded as “Metabolite_Detected”. Also, the degraded at 40 min in series [2] is 42%.
Regarding `[O-]c1on[s+]c1-c1ccc(F)cc1F`, the Drug metabolism entry in series [1] is given as “Metabolite_Detected”. Moreover, the Stability entry in series [2] (40 min, 75000 µM) is “Stable”.
For `[O-]c1on[s+]c1-c1cc(F)cc(F)c1`, in series [1], the degraded at 40 min lay in the range of 40 to 80%.
For the compound `[O-]c1on[s+]c1-c1ccccc1`, the degraded at 3 h, 400 µM in series [3] was determined as 7%. The degraded at 40 min in series [1] came out at 48%.
